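Abbreviation: GI50, concentration required for 50% inhibition of growth. TGI is the concentration that stops growth completely.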
How the values were obtained:
Assay in all cases: NCI anticancer screen, dose series, 384-well format
MCF7 breast = test system: MCF7 breast
NCI-H522 lung = test system: NCI-H522 lung
U251 glioblastoma = test system: U251 glioblastoma
MDA-MB-231 breast = test system: MDA-MB-231 breast
CAKI-1 renal = test system: CAKI-1 renal
A549 NSCLC = test system: A549 NSCLC
M14 melanoma = test system: M14 melanoma
HS 578T breast = test system: HS 578T breast
BT-549 breast = test system: BT-549 breast
SF-268 CNS = test system: SF-268 CNS
UO-31 renal = test system: UO-31 renal
DU-145 prostate = test system: DU-145 prostate
T-47D breast = test system: T-47D breast
SW-620 colon = test system: SW-620 colon
HOP-62 NSCLC = test system: HOP-62 NSCLC
NCI-H460 NSCLC = test system: NCI-H460 NSCLC
SK-MEL-2 melanoma = test system: SK-MEL-2 melanoma
RXF 393 renal = test system: RXF 393 renal
K-562 leukemia = test system: K-562 leukemia
A498 renal = test system: A498 renal
EKVX NSCLC = test system: EKVX NSCLC
IGROV1 ovarian = test system: IGROV1 ovarian
NCI-H226 lung = test system: NCI-H226 lung
COLO 205 colon = test system: COLO 205 colon
MOLT-4 leukemia = test system: MOLT-4 leukemia
MDA-MB-435 melanoma = test system: MDA-MB-435 melanoma
UACC-62 melanoma = test system: UACC-62 melanoma
SK-OV-3 ovarian = test system: SK-OV-3 ovarian
ACHN renal = test system: ACHN renal
SNB-75 CNS = test system: SNB-75 CNS
SNB-19 CNS = test system: SNB-19 CNS
SK-MEL-28 melanoma = test system: SK-MEL-28 melanoma
TK-10 renal = test system: TK-10 renal
SF-539 CNS = test system: SF-539 CNS
NCI-H322M lung = test system: NCI-H322M lung
SN12C renal = test system: SN12C renal
786-0 renal = test system: 786-0 renal
PC-3 prostate = test system: PC-3 prostate
OVCAR-5 ovarian = test system: OVCAR-5 ovarian
MALME-3M melanoma = test system: MALME-3M melanoma
OVCAR-3 ovarian = test system: OVCAR-3 ovarian
SR leukemia = test system: SR leukemia
SK-MEL-5 melanoma = test system: SK-MEL-5 melanoma
HCT-15 colon = test system: HCT-15 colon
MDA-MB-468 breast = test system: MDA-MB-468 breast
HT29 colon = test system: HT29 colon
KM12 colon = test system: KM12 colon
HL-60(TB) leukemia = test system: HL-60(TB) leukemia
NCI-H23 lung = test system: NCI-H23 lung
OVCAR-4 ovarian = test system: OVCAR-4 ovarian
SF-295 CNS = test system: SF-295 CNS
UACC-257 melanoma = test system: UACC-257 melanoma

Cc1cccc2nc3cccc(C(=O)NCCNCCNCCNC(=O)c4cccc5nc6cccc(C)c6nc45)c3nc12
GI50 (MCF7 breast): < 10 nM | TGI (MCF7 breast): 31200 nM | GI50 (NCI-H522 lung): 101 nM | TGI (NCI-H522 lung): 221 nM | GI50 (U251 glioblastoma): < 10 nM | TGI (U251 glioblastoma): 1780 nM | GI50 (MDA-MB-231 breast): 11.5 nM | TGI (MDA-MB-231 breast): 628 nM | GI50 (CAKI-1 renal): < 10 nM | TGI (CAKI-1 renal): 3140 nM | GI50 (A549 NSCLC): < 10 nM | TGI (A549 NSCLC): 1510 nM | GI50 (M14 melanoma): < 10 nM | TGI (M14 melanoma): 751 nM | GI50 (HS 578T breast): 79.6 nM | TGI (HS 578T breast): 265 nM | GI50 (BT-549 breast): 1320 nM | TGI (BT-549 breast): 2780 nM | GI50 (SF-268 CNS): 75.7 nM | TGI (SF-268 CNS): 318 nM | GI50 (UO-31 renal): 47 nM | TGI (UO-31 renal): 19400 nM | GI50 (DU-145 prostate): < 10 nM | TGI (DU-145 prostate): 208 nM | GI50 (T-47D breast): 564 nM | TGI (T-47D breast): 5310 nM | GI50 (SW-620 colon): < 10 nM | TGI (SW-620 colon): 1710 nM | GI50 (HOP-62 NSCLC): < 10 nM | TGI (HOP-62 NSCLC): 1390 nM | GI50 (NCI-H460 NSCLC): < 10 nM | TGI (NCI-H460 NSCLC): 229 nM | GI50 (SK-MEL-2 melanoma): 71.3 nM | TGI (SK-MEL-2 melanoma): 209 nM | GI50 (RXF 393 renal): < 10 nM | TGI (RXF 393 renal): 231 nM | GI50 (K-562 leukemia): < 10 nM | TGI (K-562 leukemia): 1270 nM | GI50 (A498 renal): < 10 nM | TGI (A498 renal): 2230 nM | GI50 (EKVX NSCLC): 1230 nM | TGI (EKVX NSCLC): 5680 nM | GI50 (IGROV1 ovarian): < 10 nM | TGI (IGROV1 ovarian): 47700 nM | GI50 (NCI-H226 lung): 124 nM | TGI (NCI-H226 lung): 1190 nM | GI50 (COLO 205 colon): < 10 nM | TGI (COLO 205 colon): 1820 nM | GI50 (MOLT-4 leukemia): < 10 nM | GI50 (MDA-MB-435 melanoma): 133 nM | TGI (MDA-MB-435 melanoma): 1900 nM | GI50 (UACC-62 melanoma): < 10 nM | TGI (UACC-62 melanoma): 152 nM | GI50 (SK-OV-3 ovarian): 28.9 nM | TGI (SK-OV-3 ovarian): 3750 nM | GI50 (ACHN renal): < 10 nM | TGI (ACHN renal): 1960 nM | GI50 (SNB-75 CNS): 127 nM | TGI (SNB-75 CNS): 316 nM | GI50 (SNB-19 CNS): 245 nM | TGI (SNB-19 CNS): > 100000 nM | GI50 (SK-MEL-28 melanoma): 510 nM | TGI (SK-MEL-28 melanoma): 2140 nM | GI50 (TK-10 renal): < 10 nM | TGI (TK-10 renal): 6440 nM | GI50 (SF-539 CNS): < 10 nM | TGI (SF-539 CNS): 454 nM | GI50 (NCI-H322M lung): 139 nM | TGI (NCI-H322M lung): 1140 nM | GI50 (SN12C renal): 109 nM | TGI (SN12C renal): 300 nM | GI50 ([…]-0 renal): < 10 nM | TGI (786-0 renal): 6780 nM | GI50 (PC-3 prostate): 17.1 nM | TGI (PC-3 prostate): 2280 nM | GI50 (OVCAR-5 ovarian): 62.3 nM | TGI (OVCAR-5 ovarian): > 100000 nM | GI50 (MALME-3M melanoma): 107 nM | TGI (MALME-3M melanoma): 1900 nM | GI50 (OVCAR-3 ovarian): < 10 nM | TGI (OVCAR-3 ovarian): 2620 nM | GI50 (SR leukemia): < 10 nM | GI50 (SK-MEL-5 melanoma): < 10 nM | TGI (SK-MEL-5 melanoma): 1210 nM | GI50 (HCT-15 colon): 21.2 nM | TGI (HCT-15 colon): > 100000 nM | GI50 (MDA-MB-468 breast): < 10 nM | TGI (MDA-MB-468 breast): 1210 nM | GI50 (HT29 colon): < 10 nM | TGI (HT29 colon): 234 nM | GI50 (KM12 colon): < 10 nM | TGI (KM12 colon): 109 nM | GI50 (HL-60(TB) leukemia): < 10 nM | TGI (HL-60(TB) leukemia): 154 nM | GI50 (NCI-H23 lung): 179 nM | TGI (NCI-H23 lung): 1760 nM | GI50 (OVCAR-4 ovarian): 188 nM | TGI (OVCAR-4 ovarian): 2020 nM | GI50 (SF-295 CNS): < 10 nM | TGI (SF-295 CNS): 3080 nM | GI50 (UACC-257 melanoma): 1450 nM | TGI (UACC-257 melanoma): 3580 nM

Reference: PubChem BioAssay (NCI)
